Experimental findings from patent publication EP0037049A1, “Biphenylyl-imidazolylethane derivatives, process for their preparation and medicaments containing them” (BAYER AG, priority 1980, dated 1981) are described below.

In this assay the test system is Dermatophyten, Schimmelpilze, Hefen. Description: Antifungal in-vitro activity, serial dilution test. Conditions: incubation at 28°C, 24 h for yeasts, 96 h for dermatophytes and moulds, activity stated to be superior to prior-art compounds (A), (B), (C) and (D). It counts as cell-based. The protocol:
Die in-vitro-Prüfung wurde im Reihenverdünnungstest mit Keiminokula von durchschnittlich […] Substrat durchgeführt. Als Nährmedium dienten • a) für Dermatophyten und Schimmelpilze: Sabourand's milieu d'epresive • b) für Hefen: • Isotonic Sensitest-Broth von Oxid.
Die Bebrütungstemperatur betrug 28°C; Bebrütungsdauer war 24 Stunden bei Hefen und 96 Stunden bei Dermatophyten und Schimmelpilzen.
On to `Clc1ccccc1C(Cn1ccnc1)c1ccc(-c2ccccc2)cc1` (stereo not shown) [Beispiel 5], for which the “Antimykotische in-vitro-Wirksamkeit (Wirkung)” value is “sehr gute Wirkung”.
With `Fc1ccccc1C(Cn1ccnc1)c1ccc(-c2ccccc2)cc1` (stereo not shown) [Beispiel 6] the entry was “sehr gute Wirkung”; with `Clc1cccc(C(Cn2ccnc2)c2ccc(-c3ccccc3)cc2)c1` (stereo not shown) [Beispiel 7], “sehr gute Wirkung”.
For `Clc1ccc(-c2ccc(C(Cn3cncn3)c3ccccc3Cl)cc2)cc1` (stereo not shown) [Beispiel 8], the “Antimykotische in-vitro-Wirksamkeit (Wirkung)” value is “sehr gute Wirkung”.
